Results: patent publication US9617283B2, “Bicyclic heterocycle compounds and their uses in therapy” (ASTEX THERAPEUTICS LIMITED, priority 2012, dated 2017)
Structures can show the parent of a compound that is named as a salt. Where two headings read alike, the source gives them in different places.

System: EVSA-T (human breast carcinoma)
Experiment: Anti-proliferative activity, Alamar Blue assay, EVSA-T
Assay type: cell-based
[1] = Homo sapiens, EVSA-T cell line, 72 hours, Alamar Blue, read-out: EVSA-T prolif
[2] = Homo sapiens, EVSA-T, 72 h, EVSA-T cell line, 72 hours, Alamar Blue, read-out: EVSA-T prolif
[3] = Homo sapiens, EVSA-T, read-out: EC50 in EVSA-T cell line assays

SMILES | EC50 [1] [nM] | EC50 [2] [nM] | EC50 [3] [nM] | EC50 (EVSA-T cell line, 72 hours, Alamar Blue, dihydrochloride, read-out: EVSA-T prolif) [nM]
C[C@@H]1CN(CC(=O)N2CC(C)(C)c3ncc(Cc4ccc(F)cc4)cc32)[C@@H](CN2CCC(F)(F)C2=O)CN1 [Example 11, 3,3-Difluoro-1-{[(2R,5R)-1-(2-{6-[(4-fluorophenyl)methyl]-3,3-dimethyl-1H,2H,3H-pyrrolo[3,2-b]pyridin-1-yl}-2-oxoethyl)-5-methylpiperazin-2-yl]methyl}pyrrolidin-2-one dihydrochloride] | 4.3 | – | – | –
C[C@@H]1CN(CC(=O)N2CC(C)(C)c3nnc(Cc4ccc(F)cc4)cc32)[C@@H](CN2Cc3ccccc3C2=O)CN1 [Example 61, 2-{[(2R,5R)-1-(2-{3-[(4-Fluorophenyl)methyl]-7,7-dimethyl-5H,6H,7H-pyrrolo[3,2-c]pyridazin-5-yl}-2-oxoethyl)-5-methylpiperazin-2-yl]methyl}-2,3-dihydro-1H-isoindol-1-one dihydrochloride] | 1.5 | – | – | –
CCC1CC(=O)N(C[C@H]2CN[C@H](C)CN2CC(=O)N2CC(C)(C)c3ncc(Cc4ccc(F)cc4)cc32)C1 (single isomer, unassigned) [Example 82, (4R or 4S)-4-Ethyl-1-{[(2R,5R)-1-(2-{6-[(4-fluorophenyl)methyl]-3,3-dimethyl-1H,2H,3H-pyrrolo[3,2-b]pyridin-1-yl}-2-oxoethyl)-5-methylpiperazin-2-yl]methyl}pyrrolidin-2-one dihydrochloride] | – | 1.5 | < 1000 | –
C[C@@H]1CC(=O)N(C[C@H]2CN[C@H](C)CN2CC(=O)N2CC(C)(C)c3ncc(Cc4ccc(F)cc4)cc32)C1 [Example 16, (4R)-1-{[(2R,5R)-1-(2-{6-[(4-Fluorophenyl)methyl]-3,3-dimethyl-1H,2H,3H-pyrrolo[3,2-b]pyridin-1-yl}-2-oxoethyl)-5-methylpiperazin-2-yl]methyl}-4-methylpyrrolidin-2-one dihydrochloride] | – | 6 | – | –
CCCC(F)(F)c1cc2c(nn1)C(C)(C)CN2C(=O)CN1C[C@@H](C)NC[C@@H]1CN1CC(C)(C)CC1=O [Example 55, 1-{[(2R,5R)-1-{2-[3-(1,1-Difluorobutyl)-7,7-dimethyl-5H,6H,7H-pyrrolo[3,2-c]pyridazin-5-yl]-2-oxoethyl}-5-methylpiperazin-2-yl]methyl}-4,4-dimethylpyrrolidin-2-one] | – | – | < 1000 | –
C[C@@H]1CN(CC(=O)N2CC(C)(C)c3ncc(Cc4ccc(F)cc4)cc32)[C@@H](CN2C(=O)CO[C@@H](C)[C@H]2C)CN1 [Example 25, (5R,6S)-4-{[(2R,5R)-1-(2-{6-[(4-Fluorophenyl)methyl]-3,3-dimethyl-1H,2H,3H-pyrrolo[3,2-b]pyridin-1-yl}-2-oxoethyl)-5-methylpiperazin-2-yl]methyl}-5,6-dimethylmorpholin-3-one, dihydrochloride] | – | 1.9 | < 1000 | –
C[C@H]1CC(=O)N(C[C@H]2CN[C@H](C)CN2CC(=O)N2CC(C)(C)c3ncc(Cc4ccc(F)cc4)cc32)C1 [Example 17, (4S)-1-{[(2R,5R)-1-(2-{6-[(4-Fluorophenyl)methyl]-3,3-dimethyl-1H,2H,3H-pyrrolo[3,2-b]pyridin-1-yl}-2-oxoethyl)-5-methylpiperazin-2-yl]methyl}-4-methylpyrrolidin-2-one dihydrochloride] | – | 3.1 | < 1000 | –
C[C@@H]1CN(CC(=O)N2CC(C)(C)c3ncc(Cc4ccc(F)cc4)cc32)[C@@H](CN2CC(=O)NCC2=O)CN1 [Example 22, 1-{[(2R,5R)-1-(2-{6-[(4-Fluorophenyl)methyl]-3,3-dimethyl-1H,2H,3H-pyrrolo[3,2-b]pyridin-1-yl}-2-oxoethyl)-5-methylpiperazin-2-yl]methyl}piperazine-2,5-dione] | – | 9.2 | < 1000 | –
C[C@@H]1CN(CC(=O)N2CC(C)(C)c3ncc(Cc4ccc(F)cc4F)cc32)[C@@H](CN2Cc3ncccc3C2=O)CN1 [Example 62, 6-{[(2R,5R)-1-(2-{6-[(2,4-Difluorophenyl)methyl]-3,3-dimethyl-1H,2H,3H-pyrrolo[3,2-b]pyridin-1-yl}-2-oxoethyl)-5-methylpiperazin-2-yl]methyl}-5H,6H,7H-pyrrolo[3,4-b]pyridin-5-one] | – | – | < 1000 | –
C[C@@H]1CN(CC(=O)N2CC(C)(C)c3ncc(Cc4ccc(F)cc4)cc32)[C@@H](CN2CCOCCC2=O)CN1 [Example 2, 4-{[(2R,5R)-1-(2-{6-[(4-Fluorophenyl)methyl]-3,3-dimethyl-1H,2H,3H-pyrrolo[3,2-b]pyridin-1-yl}-2-oxoethyl)-5-methylpiperazin-2-yl]methyl}-1,4-oxazepan-5-one hydrochloride] | – | 6.5 | < 1000 | –
COc1ccc2c(c1)CN(C[C@H]1CN[C@H](C)CN1CC(=O)N1CC(C)(C)c3ncc(Cc4ccc(F)cc4)cc31)C2=O [Example 94, 2-{[(2R,5R)-1-(2-{6-[(4-Fluorophenyl)methyl]-3,3-dimethyl-1H,2H,3H-pyrrolo[3,2-b]pyridin-1-yl}-2-oxoethyl)-5-methylpiperazin-2-yl]methyl}-5-methoxy-2,3-dihydro-1H-isoindol-1-one dihydrochloride] | 4.8 | – | – | –
CCCC(F)(F)c1cc2c(nn1)C(C)(C)CN2C(=O)CN1C[C@@H](C)NC[C@@H]1CN1C(=O)CO[C@@H](C)[C@H]1C [Example 58, (5R,6S)-4-{[(2R,5R)-1-{2-[3-(1,1-Difluorobutyl)-7,7-dimethyl-5H,6H,7H-pyrrolo[3,2-]pyridazin-5-yl]-2-oxoethyl}-5-methylpiperazin-2-yl]methyl}-5,6-dimethylmorpholin-3-one] | – | – | < 1000 | –
C[C@@H]1CN(CC(=O)N2CC(C)(C)c3ncc(Cc4ccc(F)cc4)cc32)[C@@H](CN2CC(C)(C)OCC2=O)CN1 [Example 97, 4-{[(2R,5R)-1-(2-{6-[(4-Fluorophenyl)methyl]-3,3-dimethyl-1H,2H,3H-pyrrolo[3,2-b]pyridin-1-yl}-2-oxoethyl)-5-methylpiperazin-2-yl]methyl}-6,6-dimethylmopholin-3-one dihydrochloride] | – | 9 | < 1000 | –
C[C@@H]1CN(CC(=O)N2CC(C)(C)c3nnc(Cc4ccc(F)cc4F)cc32)[C@@H](CN2Cc3c(C#N)cccc3C2=O)CN1 [Example 119, 2-{[(2R,5R)-1-(2-{3-[(2,4-Difluorophenyl)methyl]-7,7-dimethyl-5H,6H,7H-pyrrolo[3,2-c]pyridazin-5-yl}-2-oxoethyl)-5-methylpiperazin-2-yl]methyl}-1-oxo-2,3-dihydro-1H-isoindole-4-carbonitrile dihydrochloride] | – | 7.5 | < 1000 | –
C[C@@H]1CN(CC(=O)N2CC(C)(C)c3ncc(Cc4ccc(F)cc4)cc32)[C@@H](CN2C[C@@H](C)OC2=O)CN1 [Example 9, (5R)-3-{[(2R,5R)-1-(2-{6-[(4-Fluorophenyl)methyl]-3,3-dimethyl-1H,2H,3H-pyrrolo[3,2-b]pyridin-1-yl}-2-oxoethyl)-5-methylpiperazin-2-yl]methyl}-5-methyl-1,3-oxazolidin-2-one] | – | 5.9 | < 1000 | –
C[C@@H]1CN(CC(=O)N2CC(C)(C)c3nnc(Cc4ccc(F)cc4F)cc32)[C@@H](CN2Cc3ncccc3C2=O)CN1 [Example 64, 6-{[(2R,5R)-1-(2-{3-[(2,4-Difluorophenyl)methyl]-7,7-dimethyl-5H,6H,7H-pyrrolo[3,2-c]pyridazin-5-yl}-2-oxoethyl)-5-methylpiperazin-2-yl]methyl}-5H,6H,7H-pyrrolo[3,4-b]pyridin-5-one] | – | – | < 1000 | –
CCCC(F)(F)c1cc2c(nn1)C(C)(C)CN2C(=O)CN1C[C@@H](C)NC[C@@H]1CN1C[C@H](C)OCC1=O [Example 57, (6S)-4-{[(2R,5R)-1-{2-[3-(1,1-Difluorobutyl)-7,7-dimethyl-5H,6H,7H-pyrrolo[3,2-c]pyridazin-5-yl]-2-oxoethyl}-5-methylpiperazin-2-yl]methyl}-6-methylmorpholin-3-one] | – | – | < 1000 | –
CCCC(F)(F)c1cnc2c(c1)N(C(=O)CN1C[C@@H](C)NC[C@@H]1CN1Cc3ncccc3C1=O)CC2(C)C [Example 66, 6-{[(2R,5R)-1-{2-[6-(1,1-Difluorobutyl)-3,3-dimethyl-1H,2H,3H-pyrrolo[3,2-b]pyridin-1-yl]-2-oxoethyl}-5-methylpiperazin-2-yl]methyl}-5H,6H,7H-pyrrolo[3,4-b]pyridin-5-one] | – | – | < 1000 | –
C[C@H]1CC(=O)N(C[C@H]2CN[C@H](C)CN2CC(=O)N2CC(C)(C)c3nnc(Cc4ccc(F)cc4)cc32)C1 [Example 47, (4S)-1-{[(2R,5R)-1-(2-{3-[(4-Fluorophenyl)methyl]-7,7-dimethyl-5H,6H,7H-pyrrolo[3,2-c]pyridazin-5-yl}-2-oxoethyl)-5-methylpiperazin-2-yl]methyl}-4-methylpyrrolidin-2-one dihydrochloride] | – | 2.9 | < 1000 | –
C[C@@H]1CN(CC(=O)N2CC(C)(C)c3ncc(Cc4ccc(F)cc4)cc32)[C@@H](CN2Cc3cccnc3C2=O)CN1 [Example 95, 6-{[(2R,5R)-1-(2-{6-[(4-Fluorophenyl)methyl]-3,3-dimethyl-1H,2H,3H-pyrrolo[3,2-b]pyridin-1-yl}-2-oxoethyl)-5-methylpiperazin-2-yl]methyl}-5H,6H,7H-pyrrolo[3,4-b]pyridin-7-one dihydrochloride] | 0.71 | – | – | –
CCC1CC(=O)N(C[C@H]2CN[C@H](C)CN2CC(=O)N2CC(C)(C)c3ncc(Cc4ccc(F)cc4)cc32)C1 (single isomer, unassigned) [Example 86, (4R or 4S)-4-Ethyl-1-{[(2R,5R)-1-(2-{6-[(4-fluorophenyl)methyl]-3,3-dimethyl-1H,2H,3H-pyrrolo[3,2-b]pyridin-1-yl}-2-oxoethyl)-5-methylpiperazin-2-yl]methyl}pyrrolidin-2-one dihydrochloride] | – | – | – | 1.7
